The values below come from ChEMBL document CHEMBL5154930, “Design, Synthesis, and Biological Evaluations of DOT1L Peptide Mimetics Targeting the Protein-Protein Interactions between DOT1L and MLL-AF9/MLL-ENL” (J Med Chem, 2022).

pIC50, pKi: −log10 of the molar value. Non-standard residues stand in square brackets, D forms with d. Residues, ends and D or L forms follow the SMILES beside them. *: point of attachment. X2 = c1ccc(-c2cn(CC3CCCCC3)c([C@@H]3CCCN3*)n2)cc1; Ala(cPent) = N[C@@H](CC1CCCC1)C(=O)O; Pentanoyl(4-Me) = CC(C)CCC(=O)*; Dap = NC[C@H](N)C(=O)O

Usually pKi stands for −log10 of the Ki, conventionally taken in molar units. Broadly, the pIC50 is −log10 of the IC50, conventionally taken in molar units. A higher pIC50 goes with a small IC50. A word on the Papp A→B: it is how fast a substance crosses the layer from the apical side.

The target of one series is T1, Protein ENL (Homo sapiens, UniProt Q03111).
T1 sequence (Q03111 whole entry): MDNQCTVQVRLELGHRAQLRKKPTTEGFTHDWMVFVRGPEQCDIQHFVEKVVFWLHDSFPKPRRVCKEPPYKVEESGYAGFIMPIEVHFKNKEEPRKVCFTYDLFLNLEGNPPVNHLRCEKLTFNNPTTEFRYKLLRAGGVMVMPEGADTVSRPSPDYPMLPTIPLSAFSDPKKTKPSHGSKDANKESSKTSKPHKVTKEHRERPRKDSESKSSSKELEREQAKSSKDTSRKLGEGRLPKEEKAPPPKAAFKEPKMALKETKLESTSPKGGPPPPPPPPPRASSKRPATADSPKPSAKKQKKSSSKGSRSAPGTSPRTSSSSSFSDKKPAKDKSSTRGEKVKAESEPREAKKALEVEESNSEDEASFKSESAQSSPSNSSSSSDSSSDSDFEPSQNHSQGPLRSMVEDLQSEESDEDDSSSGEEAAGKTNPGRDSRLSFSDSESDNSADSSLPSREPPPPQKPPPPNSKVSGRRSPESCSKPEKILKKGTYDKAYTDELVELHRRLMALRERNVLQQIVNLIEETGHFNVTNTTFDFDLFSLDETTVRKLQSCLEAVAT
In words: Binding affinity to MBP-tagged human recombinant ENL (489 to 559 residues) incubated for 40 mins by measuring fluorescence polarization by microplate reader method. On the technique in general: In fluorescence polarisation assays a small probe gives low polarisation when free and higher when bound to something large.

Another series relates to MOLM-13. In words: cells. Particulars: Homo sapiens, MOLM-13, 192 h.
A short description of series [1]: Apparent permeability across apical to basolateral side in human Caco-2 cells. In kind it is ADME, cell-based. In general terms: Passage across Caco-2 layers is used to estimate intestinal permeability.
Series [2] in a line: Stability in human plasma assessed as compound remaining measured upto 1440 mins by HPLC analysis. Particulars: read-out: Stability. The series is classed as ADME, cell-free.
In a further series the test system is KOPN-8. Put plainly: cells. Particulars: Homo sapiens, KOPN-8, 192 h.

Description for KOPN-8: Anticancer activity against human KOPN-8 cells harbouring MLL-ENL assessed as inhibition of cell growth treated for 8 days measured by CCK-8 kit method
Description for MOLM-13: Anticancer activity against human MOLM-13 cells harbouring MLL-AF9 assessed as inhibition of cell growth treated for 8 days measured by CCK-8 kit method

In the case of `CC(C)CCC(=O)N1CCC[C@H]1C(=O)N[C@H](C(=O)N[C@@H](CN)C(=O)N[C@@H](CC1CCCC1)C(=O)N1CCC[C@H]1c1nc(-c2ccccc2)cn1CC1CCCCC1)C(C)C` ({Pentanoyl(4-Me)}-PV[Dap][Ala(cPent)]-X2), the pKi on Protein ENL was 6.62. Moreover, the pIC50 with MOLM-13 was 5.49; in the series on KOPN-8, 5.66. For the same molecule, the Papp A→B in series [1] turned out to be 0.73 ×10⁻⁶ cm/s. The remaining at 24 h in series [2] worked out at 94%.
